Biological target: Cruzipain (Trypanosoma cruzi, UniProt P25779)
Test: Inhibition of Trypanosoma cruzi cruzain

Sequence of Cruzipain (P25779 whole entry): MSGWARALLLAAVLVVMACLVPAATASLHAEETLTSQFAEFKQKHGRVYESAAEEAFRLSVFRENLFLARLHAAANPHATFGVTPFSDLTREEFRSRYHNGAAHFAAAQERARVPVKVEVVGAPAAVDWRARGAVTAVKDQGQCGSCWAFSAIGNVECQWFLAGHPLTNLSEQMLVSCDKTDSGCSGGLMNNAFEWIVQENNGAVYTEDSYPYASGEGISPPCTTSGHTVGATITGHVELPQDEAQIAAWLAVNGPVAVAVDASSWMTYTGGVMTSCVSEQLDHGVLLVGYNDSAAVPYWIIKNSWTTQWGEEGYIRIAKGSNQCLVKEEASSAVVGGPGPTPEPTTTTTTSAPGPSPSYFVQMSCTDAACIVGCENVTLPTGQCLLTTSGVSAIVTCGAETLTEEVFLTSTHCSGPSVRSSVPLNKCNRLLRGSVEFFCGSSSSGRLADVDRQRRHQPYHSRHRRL

| SMILES | Ki [nM] |
| --- | --- |
| O=C(N[C@@H](Cc1ccccc1)C(=O)N[C@H](CCS)CCc1ccccc1)OCc1ccccc1 | > 5010 |
| O=C(N[C@@H](Cc1ccccc1)C(=O)N[C@H](CCO)CCc1ccccc1)OCc1ccccc1 | > 10000 |
| O=C(N[C@@H](Cc1ccccc1)C(=O)N[C@@H](Cc1ccccc1)C(=O)CO)OCc1ccccc1 | 145 |
| O=C(N[C@@H](Cc1ccccc1)C(=O)N[C@@H](Cc1ccccc1)C(=O)CS)OCc1ccccc1 | 4.37 |
| O=C(O)C[C@H](CCc1ccccc1)NC(=O)[C@H](Cc1ccccc1)NC(=O)OCc1ccccc1 | > 10000 |

Reference: ChEMBL document CHEMBL1143963, “2D QSAR and similarity studies on cruzain inhibitors aimed at improving selectivity over cathepsin L” (Bioorg Med Chem, 2008)
